Measurements published in ChEMBL document CHEMBL1201862, “PubChem BioAssay data set” (2004).
The source made the active and inactive calls.

Assays:
[1] = NIH-3T3 fibroblast cytotoxicity, dose response, cytotoxicity control, cell-based, fluorescence, Alamar Blue, secondary assay (AID 2327); type: functional;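 further: NIH-3T3 mouse fibroblasts cultured with fluconazole at 8 µg/mL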
[2] = fluconazole-exposed Candida albicans growth modulators – fluorescence, retest, confirmation (AID 2467); type: functional, cell-based
Mucolipin-3 = target: T1, Mucolipin-3 (Homo sapiens, UniProt Q8TDD5); assay: Dose response cell-based high-throughput screening assay for agonists of the transient receptor potential channel ML3 (TRPML3). [Related pubchem assays: 1526, 1424, 1448 ]; type: functional
T1 sequence (Q8TDD5 whole entry): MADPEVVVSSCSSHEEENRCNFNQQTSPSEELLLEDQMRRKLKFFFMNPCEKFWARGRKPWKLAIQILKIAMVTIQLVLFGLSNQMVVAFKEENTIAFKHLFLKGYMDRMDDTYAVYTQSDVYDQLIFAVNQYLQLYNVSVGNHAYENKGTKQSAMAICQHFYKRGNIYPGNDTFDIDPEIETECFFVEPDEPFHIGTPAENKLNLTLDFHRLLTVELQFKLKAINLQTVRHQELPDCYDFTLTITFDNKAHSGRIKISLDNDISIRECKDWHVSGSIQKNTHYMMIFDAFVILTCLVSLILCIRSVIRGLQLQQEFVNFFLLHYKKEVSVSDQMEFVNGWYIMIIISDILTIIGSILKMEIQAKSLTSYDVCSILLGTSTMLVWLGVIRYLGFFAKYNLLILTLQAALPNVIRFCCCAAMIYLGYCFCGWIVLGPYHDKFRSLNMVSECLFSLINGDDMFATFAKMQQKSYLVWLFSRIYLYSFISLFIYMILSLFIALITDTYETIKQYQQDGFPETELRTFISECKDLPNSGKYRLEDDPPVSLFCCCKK

[3] = target: Serine/threonine-protein phosphatase (Candida dubliniensis (strain CD36 / CBS 7987 / NCPF 3949 / NRRLY-17841) (Yeast), UniProt B9W6M3); assay: blockers of CaCl2-induced CDRE-lacZ signaling – S. cerevisiae, luminescence, secondary, dose response (AID 2388); type: functional, cell-based;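 further: yeast reporter cells carrying a calcineurin-responsive lacZ construct stimulated with calcium chloride; luminescent beta-galactosidase reporter signal in whole cells rather than isolated phosphatase activity; potency for inhibition where a drop in reporter signal means calcineurin blockade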
Ion channel NompC = Ion channel NompC (Danio rerio, UniProt Q7T1G6); assay: Fluorescence counterscreen assay for TRPML3 agonists: dose response cell-based high-throughput screening assay to identify agonists of the transient receptor potential channel N1 (TRPN1). [Related pubchem assays: 1526, 1424, 1448 ]; type: functional
[4] = target: ATP-dependent molecular chaperone HSP82 (Candida albicans (strain WO-1) (Yeast), UniProt C4YTQ8); assay: steroid-induced GRE reporter decrease in yeast – S. cerevisiae, luminescence, Hsp90 inhibitor project, dose response (AID 2400); type: functional, cell-based;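 further: beta-galactosidase luminescence from glucocorticoid response element reporter as proxy for Hsp90 function; inhibitor potency where signal loss means Hsp90 inhibition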
Escherichia coli [5] = assay: microbe, parasite or virus in culture
Escherichia coli [6] = assay: microbe, parasite or virus in culture; remark: listed apart in the source
[7] = luciferase reporter signal suppression in cells – H4 neuroglioma cells, luminescence, dose response (AID 1990); type: functional, cell-based
[8] = Luminescence Cell-Based Dose Response HTS to Identify Inhibitors of 5'UTR Stem-Loop Driven Prion Protein mRNA Translation in H4 Neuroglioblastoma Cells. [Related pubchem assays: 1827 (Project Summary), 1813 (Primary HTS)]; type: functional
[9] = alpha-synuclein stem-loop luciferase translation blockers – H4 neuroglioma cells, luminescence, confirmation (AID 1988); type: functional, cell-based
BJ = assay: growth inhibition of engineered Ras-driven BJ cells – cell-based, alamar blue fluorescence, cherrypicked samples, dose response (AID 2631); type: functional; details: Homo sapiens;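 further: confirmatory dose-response assay in RAS-dependent BJ fibroblasts engineered with TERT, LT and ST, with cytotoxicity read by fluorescence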
[10] = target: Beta-2 adrenergic receptor (Homo sapiens, UniProt P07550); assay: ADRB2 activation measured by internalization – cell-based, FAP fluorogen, flow cytometry, cherry pick 1, dose response (AID 588763); type: functional
[11] = Trypanosoma cruzi growth suppression in host cells – NIH3T3 host cells, beta-gal luminescence, confirmation (AID 2044); type: functional, cell-based;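 further: intracellular parasites grown in NIH/3T3 mouse fibroblasts as host cells; luminescent beta-galactosidase reporter signal from transgenic T. cruzi replicating inside host cells; inhibitors lower the luminescence signal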
[12] = NIH3T3 cell viability loss – ATP luminescence, mouse fibroblasts, counter-screen, dose response (AID 2010); type: functional, cell-based;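 further: cells exposed to compound for about 90 hours before reading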
[13] = target: T2, Short transient receptor potential channel 4 (Mus musculus, UniProt Q9QUQ5); assay: calcium entry via TRPC4 opening agents – cell-based, HEK293 TRPC4/mu-opioid, Fluo-4 calcium, dose response (AID 434937); type: functional
T2 sequence (Q9QUQ5 whole entry): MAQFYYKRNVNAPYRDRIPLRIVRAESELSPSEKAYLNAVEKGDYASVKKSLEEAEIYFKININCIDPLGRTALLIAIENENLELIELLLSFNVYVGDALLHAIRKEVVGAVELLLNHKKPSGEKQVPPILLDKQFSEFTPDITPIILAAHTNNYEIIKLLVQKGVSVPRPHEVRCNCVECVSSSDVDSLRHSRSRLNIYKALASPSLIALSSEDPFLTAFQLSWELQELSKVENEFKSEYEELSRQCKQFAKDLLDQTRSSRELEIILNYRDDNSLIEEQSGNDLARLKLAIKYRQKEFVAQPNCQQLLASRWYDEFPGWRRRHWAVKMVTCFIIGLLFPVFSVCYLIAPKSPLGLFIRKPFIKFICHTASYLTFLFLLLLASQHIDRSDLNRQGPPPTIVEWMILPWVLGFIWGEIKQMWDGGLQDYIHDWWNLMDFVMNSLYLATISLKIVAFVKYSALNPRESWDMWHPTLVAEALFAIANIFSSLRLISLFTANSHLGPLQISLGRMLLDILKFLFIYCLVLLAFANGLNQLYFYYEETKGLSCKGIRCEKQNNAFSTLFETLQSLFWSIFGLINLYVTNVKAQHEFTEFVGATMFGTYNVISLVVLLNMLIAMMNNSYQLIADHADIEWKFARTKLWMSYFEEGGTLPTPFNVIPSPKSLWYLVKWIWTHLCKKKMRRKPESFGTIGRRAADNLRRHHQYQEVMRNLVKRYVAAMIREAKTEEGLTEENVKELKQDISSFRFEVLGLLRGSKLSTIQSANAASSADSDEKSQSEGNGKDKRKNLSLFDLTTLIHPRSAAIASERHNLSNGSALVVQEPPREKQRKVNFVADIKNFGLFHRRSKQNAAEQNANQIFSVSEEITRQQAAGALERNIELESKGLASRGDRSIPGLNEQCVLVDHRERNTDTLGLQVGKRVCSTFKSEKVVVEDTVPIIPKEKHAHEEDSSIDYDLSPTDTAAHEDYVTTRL

[14] = target: Delta-type opioid receptor (Homo sapiens, UniProt P41143); assay: Counterscreen for agonists of heterodimerization of the mu 1 (OPRM1) and delta 1 (OPRD1) opioid receptors: Luminescence-based cell-based high throughput dose response assay to identify agonists of OPRD1 homodimerization. [Related pubchem assays (depositor defined):AID504326, AID504355, AID504692, AID504904, AID504905]; type: functional
Mu-type opioid receptor = Mu-type opioid receptor (Homo sapiens, UniProt P35372); assay: Counterscreen for agonists of heterodimerization of the mu 1 (OPRM1) and delta 1 (OPRD1) opioid receptors: Luminescence-based cell-based high throughput dose response assay to identify agonists of OPRM1 homodimerization.; type: functional;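 further: U2OS cells expressing OPRM1 and beta-arrestin as split beta-galactosidase partners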
[15] = target: 5-hydroxytryptamine receptor 5A (Homo sapiens, UniProt P47898); assay: Counterscreen for agonists of OPRM1-OPRD1 heterodimerization: luminescence-based cell-based high throughput dose response assay to identify agonists of 5-hydroxytryptamine (serotonin) 5A receptor (HTR5A). [Related pubchem assays (depositor defined):AID504326, AID504355, AID504692, AID504904, AID504905]; type: functional
HEK293 = assay: cells; type: functional, cell-based; details: Homo sapiens
[16] = target: T3, Nuclear receptor subfamily 0 group B member 1 (Homo sapiens, UniProt P51843); assay: Luminescence-based cell-based high throughput dose response assay for inhibitors of the orphan nuclear receptor subfamily 0, group B, member 1 (DAX1; NR0B1). [Related pubchem assays (depositor defined):AID504766, AID504790]; type: functional
T3 sequence (P51843 whole entry): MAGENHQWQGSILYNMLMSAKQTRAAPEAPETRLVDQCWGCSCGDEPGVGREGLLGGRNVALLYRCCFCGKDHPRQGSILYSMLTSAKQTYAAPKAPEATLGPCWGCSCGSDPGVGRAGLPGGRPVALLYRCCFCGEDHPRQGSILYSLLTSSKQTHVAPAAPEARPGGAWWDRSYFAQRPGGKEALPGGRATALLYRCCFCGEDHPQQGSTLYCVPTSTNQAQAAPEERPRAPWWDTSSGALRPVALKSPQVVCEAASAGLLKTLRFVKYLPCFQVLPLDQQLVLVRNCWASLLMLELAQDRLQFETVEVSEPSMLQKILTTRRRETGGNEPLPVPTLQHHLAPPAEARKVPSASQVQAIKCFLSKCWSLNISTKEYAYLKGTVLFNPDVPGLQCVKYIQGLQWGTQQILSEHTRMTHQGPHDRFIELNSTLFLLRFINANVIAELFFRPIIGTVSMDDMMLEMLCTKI

CAAX prenyl protease 2 [17] = target: T4, CAAX prenyl protease 2 (Saccharomyces cerevisiae S288c, UniProt Q03530); type: biochemical
T4 sequence (Q03530 whole entry): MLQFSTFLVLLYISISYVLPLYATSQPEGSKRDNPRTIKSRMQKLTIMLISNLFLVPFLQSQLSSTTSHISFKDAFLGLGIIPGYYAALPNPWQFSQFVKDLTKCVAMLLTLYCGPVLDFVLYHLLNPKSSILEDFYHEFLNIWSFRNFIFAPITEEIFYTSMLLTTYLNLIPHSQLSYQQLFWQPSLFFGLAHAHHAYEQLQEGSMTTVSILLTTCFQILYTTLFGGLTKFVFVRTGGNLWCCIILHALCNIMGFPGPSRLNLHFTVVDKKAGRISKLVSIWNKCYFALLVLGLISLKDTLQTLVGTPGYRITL

[18] = target: FAD-linked sulfhydryl oxidase ALR (Homo sapiens, UniProt P55789); assay: ALR-catalysed DTT oxidation blockers – biochemical, H2O2 detection, luminescence, cherry-pick, dose response (AID 493248)
CAAX prenyl protease 1 = CAAX prenyl protease 1 (Saccharomyces cerevisiae S288c, UniProt P47154); assay: yeast CAAX protease Ste24 inhibition – biochemical, S. cerevisiae, plate reader, cherry-pick, dose response (AID 488815)
CAAX prenyl protease 2 [19] = target: CAAX prenyl protease 2 (Homo sapiens, UniProt Q9Y256); assay: inhibition of Ras-converting CAAX protease Rce1 – biochemical, yeast membranes, quenched-peptide fluorescence, cherry-pick, dose response (AID 588849)
Sequence of CAAX prenyl protease 2 (Homo sapiens, UniProt Q9Y256) (Q9Y256 whole entry): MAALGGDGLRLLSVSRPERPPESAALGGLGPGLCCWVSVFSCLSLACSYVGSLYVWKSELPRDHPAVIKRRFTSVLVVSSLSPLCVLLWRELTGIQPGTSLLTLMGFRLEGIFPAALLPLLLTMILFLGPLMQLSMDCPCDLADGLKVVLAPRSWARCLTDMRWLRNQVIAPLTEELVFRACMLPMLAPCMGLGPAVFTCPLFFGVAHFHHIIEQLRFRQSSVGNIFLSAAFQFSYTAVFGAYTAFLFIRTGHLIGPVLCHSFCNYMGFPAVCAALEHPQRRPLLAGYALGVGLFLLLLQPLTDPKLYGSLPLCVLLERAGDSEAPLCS

Sequence of Beta-2 adrenergic receptor (P07550 whole entry): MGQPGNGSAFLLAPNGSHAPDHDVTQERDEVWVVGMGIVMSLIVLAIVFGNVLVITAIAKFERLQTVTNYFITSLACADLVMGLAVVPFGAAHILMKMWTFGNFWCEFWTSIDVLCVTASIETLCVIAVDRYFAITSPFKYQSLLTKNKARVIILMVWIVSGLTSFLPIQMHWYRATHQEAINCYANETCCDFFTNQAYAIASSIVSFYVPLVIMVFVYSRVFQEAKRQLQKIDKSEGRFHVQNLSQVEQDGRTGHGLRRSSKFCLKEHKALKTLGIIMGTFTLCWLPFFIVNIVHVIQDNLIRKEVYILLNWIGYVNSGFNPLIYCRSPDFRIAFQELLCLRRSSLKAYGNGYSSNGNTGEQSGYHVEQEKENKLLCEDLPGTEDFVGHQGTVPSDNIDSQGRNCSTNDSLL
Sequence of ATP-dependent molecular chaperone HSP82 (C4YTQ8 whole entry): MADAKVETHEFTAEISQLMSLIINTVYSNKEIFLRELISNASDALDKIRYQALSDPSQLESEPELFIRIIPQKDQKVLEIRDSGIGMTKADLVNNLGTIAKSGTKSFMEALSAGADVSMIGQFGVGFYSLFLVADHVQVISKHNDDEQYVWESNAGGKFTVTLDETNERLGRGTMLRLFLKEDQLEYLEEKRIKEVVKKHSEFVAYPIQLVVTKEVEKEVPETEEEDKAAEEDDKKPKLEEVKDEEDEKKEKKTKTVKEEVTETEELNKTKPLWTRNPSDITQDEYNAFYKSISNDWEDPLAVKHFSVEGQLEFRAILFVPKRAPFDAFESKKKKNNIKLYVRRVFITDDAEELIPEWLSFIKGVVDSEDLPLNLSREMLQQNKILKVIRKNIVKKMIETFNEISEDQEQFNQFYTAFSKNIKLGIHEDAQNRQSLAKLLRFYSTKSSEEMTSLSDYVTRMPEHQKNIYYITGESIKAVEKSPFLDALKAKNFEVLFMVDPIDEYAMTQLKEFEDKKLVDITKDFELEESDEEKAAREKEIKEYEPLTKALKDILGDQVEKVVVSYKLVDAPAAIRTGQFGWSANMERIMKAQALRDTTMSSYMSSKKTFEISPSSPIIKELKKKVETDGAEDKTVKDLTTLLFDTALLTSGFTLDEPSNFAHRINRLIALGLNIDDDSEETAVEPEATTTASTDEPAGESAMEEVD
Sequence of Delta-type opioid receptor (P41143 whole entry): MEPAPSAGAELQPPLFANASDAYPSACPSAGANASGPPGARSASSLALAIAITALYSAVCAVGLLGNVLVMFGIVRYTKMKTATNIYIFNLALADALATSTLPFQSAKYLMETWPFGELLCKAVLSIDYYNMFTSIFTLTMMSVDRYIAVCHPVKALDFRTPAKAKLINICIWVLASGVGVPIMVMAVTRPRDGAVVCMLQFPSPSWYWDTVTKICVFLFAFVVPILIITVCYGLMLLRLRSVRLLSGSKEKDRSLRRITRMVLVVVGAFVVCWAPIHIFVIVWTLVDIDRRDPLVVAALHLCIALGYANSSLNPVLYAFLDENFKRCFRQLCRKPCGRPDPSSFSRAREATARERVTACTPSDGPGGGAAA
Sequence of 5-hydroxytryptamine receptor 5A (P47898 whole entry): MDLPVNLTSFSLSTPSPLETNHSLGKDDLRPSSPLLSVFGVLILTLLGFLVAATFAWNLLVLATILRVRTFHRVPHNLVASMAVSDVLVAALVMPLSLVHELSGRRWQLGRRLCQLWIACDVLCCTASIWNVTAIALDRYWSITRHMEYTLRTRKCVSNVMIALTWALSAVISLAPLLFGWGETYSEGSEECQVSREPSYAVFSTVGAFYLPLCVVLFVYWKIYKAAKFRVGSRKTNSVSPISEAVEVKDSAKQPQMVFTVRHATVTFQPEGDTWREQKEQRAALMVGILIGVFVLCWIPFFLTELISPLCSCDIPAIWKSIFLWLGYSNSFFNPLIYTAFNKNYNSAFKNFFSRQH
Sequence of FAD-linked sulfhydryl oxidase ALR (P55789 whole entry): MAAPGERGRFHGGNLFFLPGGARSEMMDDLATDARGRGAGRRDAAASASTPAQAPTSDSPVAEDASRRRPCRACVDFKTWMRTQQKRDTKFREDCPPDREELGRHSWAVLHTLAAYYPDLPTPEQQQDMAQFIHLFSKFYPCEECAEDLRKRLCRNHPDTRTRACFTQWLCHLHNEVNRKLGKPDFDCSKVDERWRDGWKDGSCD
Sequence of CAAX prenyl protease 1 (P47154 whole entry): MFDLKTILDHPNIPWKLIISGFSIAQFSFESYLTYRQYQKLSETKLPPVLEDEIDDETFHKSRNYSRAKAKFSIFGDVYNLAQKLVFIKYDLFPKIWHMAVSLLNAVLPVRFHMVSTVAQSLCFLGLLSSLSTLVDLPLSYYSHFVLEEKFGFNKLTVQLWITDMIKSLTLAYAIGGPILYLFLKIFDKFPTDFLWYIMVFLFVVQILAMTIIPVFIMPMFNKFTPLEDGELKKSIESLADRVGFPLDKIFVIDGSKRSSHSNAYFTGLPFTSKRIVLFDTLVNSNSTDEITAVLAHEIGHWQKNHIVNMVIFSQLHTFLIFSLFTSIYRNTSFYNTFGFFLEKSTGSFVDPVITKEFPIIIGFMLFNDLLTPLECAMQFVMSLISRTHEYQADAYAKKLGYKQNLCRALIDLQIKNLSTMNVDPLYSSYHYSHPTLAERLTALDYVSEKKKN
Sequence of Mu-type opioid receptor (P35372 whole entry): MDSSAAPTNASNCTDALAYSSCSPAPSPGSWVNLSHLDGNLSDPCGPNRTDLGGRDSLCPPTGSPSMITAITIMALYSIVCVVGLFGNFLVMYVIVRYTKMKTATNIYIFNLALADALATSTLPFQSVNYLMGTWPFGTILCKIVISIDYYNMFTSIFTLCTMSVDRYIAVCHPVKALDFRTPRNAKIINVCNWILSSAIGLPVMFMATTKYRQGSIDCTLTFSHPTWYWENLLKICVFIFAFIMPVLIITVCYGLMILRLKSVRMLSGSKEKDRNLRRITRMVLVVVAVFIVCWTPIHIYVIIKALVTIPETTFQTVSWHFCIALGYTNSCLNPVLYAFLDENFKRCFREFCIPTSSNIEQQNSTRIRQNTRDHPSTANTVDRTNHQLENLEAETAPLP
Sequence of Ion channel NompC (Q7T1G6 whole entry): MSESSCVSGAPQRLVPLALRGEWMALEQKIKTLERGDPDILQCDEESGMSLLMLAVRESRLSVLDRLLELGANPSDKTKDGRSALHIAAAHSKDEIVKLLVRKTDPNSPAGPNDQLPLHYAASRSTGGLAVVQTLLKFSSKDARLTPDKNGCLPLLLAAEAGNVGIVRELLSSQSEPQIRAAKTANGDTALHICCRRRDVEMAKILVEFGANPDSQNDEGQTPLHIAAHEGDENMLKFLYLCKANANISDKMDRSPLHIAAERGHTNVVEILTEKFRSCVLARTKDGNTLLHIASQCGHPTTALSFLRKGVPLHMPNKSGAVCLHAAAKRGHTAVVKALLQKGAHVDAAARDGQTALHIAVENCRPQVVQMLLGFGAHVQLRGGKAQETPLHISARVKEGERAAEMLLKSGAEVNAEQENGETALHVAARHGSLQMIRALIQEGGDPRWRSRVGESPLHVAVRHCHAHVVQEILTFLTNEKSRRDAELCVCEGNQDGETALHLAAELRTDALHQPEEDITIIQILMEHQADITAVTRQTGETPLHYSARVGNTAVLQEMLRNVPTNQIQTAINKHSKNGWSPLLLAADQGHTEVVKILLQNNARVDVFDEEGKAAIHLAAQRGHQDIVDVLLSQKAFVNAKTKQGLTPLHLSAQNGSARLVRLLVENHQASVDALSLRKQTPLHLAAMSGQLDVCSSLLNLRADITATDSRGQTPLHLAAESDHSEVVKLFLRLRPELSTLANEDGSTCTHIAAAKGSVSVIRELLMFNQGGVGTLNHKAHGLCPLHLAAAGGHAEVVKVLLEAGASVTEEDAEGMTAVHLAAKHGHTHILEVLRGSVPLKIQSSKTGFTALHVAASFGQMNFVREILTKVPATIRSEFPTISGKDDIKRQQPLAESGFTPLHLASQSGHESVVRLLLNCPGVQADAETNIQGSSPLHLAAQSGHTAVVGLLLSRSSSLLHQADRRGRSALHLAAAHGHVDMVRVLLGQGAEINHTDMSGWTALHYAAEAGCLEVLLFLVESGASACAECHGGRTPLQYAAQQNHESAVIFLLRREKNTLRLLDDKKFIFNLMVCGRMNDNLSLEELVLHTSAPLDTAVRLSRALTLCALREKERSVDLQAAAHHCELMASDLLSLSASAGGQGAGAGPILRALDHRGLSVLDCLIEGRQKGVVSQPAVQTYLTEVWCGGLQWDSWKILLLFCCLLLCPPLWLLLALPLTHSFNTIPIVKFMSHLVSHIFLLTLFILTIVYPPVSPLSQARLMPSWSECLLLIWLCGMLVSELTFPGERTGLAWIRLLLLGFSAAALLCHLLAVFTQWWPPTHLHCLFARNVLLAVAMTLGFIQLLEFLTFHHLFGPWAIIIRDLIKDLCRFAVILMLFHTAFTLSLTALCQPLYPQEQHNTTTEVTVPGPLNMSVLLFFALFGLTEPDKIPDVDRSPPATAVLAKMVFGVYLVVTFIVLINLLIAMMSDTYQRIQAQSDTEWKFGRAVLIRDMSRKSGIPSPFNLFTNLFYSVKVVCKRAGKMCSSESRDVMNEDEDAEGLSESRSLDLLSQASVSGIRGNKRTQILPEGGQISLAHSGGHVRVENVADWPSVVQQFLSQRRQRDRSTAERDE

Cc1ccc(S(=O)(=O)N(C)c2ccc(OCC(=O)Nc3nnc(C4CC4)s3)cc2)cc1
EC50 [1]: > 150 µM (inactive)
EC50 [2]: 3.05 µM (active)
EC50 (Mucolipin-3): 4.38 µM (active)
EC50 [3]: > 180 µM (inactive)
EC50 (Ion channel NompC): > 29.9 µM (not active)
EC50 [4]: > 150 µM (inactive)

Cc1nc(NS(=O)(=O)c2ccccc2)sc1NC(=O)Nc1ccc(Cl)cc1
AC50 (Escherichia coli [5]): 27 µM (active)
AC50 (Escherichia coli [6]): > 380 µM (inactive)

COc1cccc(Cn2c(-c3nonc3N)nc3ccccc32)c1
EC50 [7]: 9.54 µM (active)
EC50 [8]: 24.7 µM (active)
EC50 [9]: 2.69 µM (active)
EC50 (BJ): 0.455 µM (active)

NC(=O)CC(NC(=O)c1ccccc1)c1ccc(NCCCN2CCCC2=O)c([N+](=O)[O-])c1 (centres undefined)
EC50 [10]: 1.4 µM (active)

Cc1cc(Cl)c2oc(C(=O)N3CCN(c4ccncc4)CC3)c(C)c2c1
EC50 [11]: 1.28 µM (active)
EC50 [12]: 7.17 µM (active)
EC50 [10]: 86.2 µM (inactive)

COCC1CCN(Cc2cn(-c3ccccc3F)nc2-c2cc(C)sc2C)CC1
EC50 [13]: 1.88 µM (active)
EC50 [14]: > 92.5 µM (inactive)
EC50 (Mu-type opioid receptor): > 92.5 µM (inactive)
EC50 [15]: > 92.5 µM (inactive)

Clc1ccccc1Nc1nc(-c2cccnc2)cs1
IC50 (HEK293): > 67.5 µM (inactive)
IC50 [16]: > 67.5 µM (inactive)

COc1cc(C(=O)NC2CCN(C)CC2)ccc1Nc1ncc2c(n1)N(Cc1ccccc1)CCC(=O)N2C
IC50 (HEK293): > 67.5 µM (inactive)
IC50 [16]: > 67.5 µM (inactive)

O=C1CN2C(=Nc3ccc(Br)cc3C2c2ccccc2)CCN1 (centres undefined)
AC50 (Escherichia coli [6]): 81.5 µM (active)

COc1ccc(/C=N/NC(=O)c2[nH]c3ccc(C)cc3c2-c2ccccc2)c(C(=O)O)c1OC
AC50 (CAAX prenyl protease 2 [17]): 5.21 µM (active)
AC50 [18]: 3.71 µM (active)
AC50 (CAAX prenyl protease 1): 1.76 µM (active)
AC50 (CAAX prenyl protease 2 [19]): 3.14 µM (active)
